This is an account of results in patent publication US12018252B2, “Methods and compositions for identifying neoantigens for use in treating cancer” (Arizona Board of Regents on Behalf of Arizona State …, priority 2019, dated 2024).

One assay deals with B16-F10 cells. In words: C57BL/B16-F10 mouse melanoma model: genetic immunization then tumor challenge. The assay is classed as in vivo. The following applies: B16F10-C57BL6; gene gun genetic immunization; compared to mock/control antigen CPV 172; n=10 per group.
A further assay deals with 4T1 cells. Briefly: BALB/C-4T1 mouse breast tumor model: immunization then tumor challenge. The following applies: 4T1-BALB/c. It is filed as in vivo. On the procedure:
BALB/c and C57BL/6 mice were from Charles River Laboratories or Jackson Laboratories. […] Tumor volumes were measured and calculated by (Length^2×Width/2) daily after the size was larger than 1 mm^3. Breeding pairs of BALB-neuT and FVB-neuN (FVB/N-Tg (MMTVneu) 202Mul) mice were obtained from Joseph Lustgarten, Mayo Clinic Arizona. Mice were monitored weekly for the tumor incidence after tumor size reached 1 mm^3. All experiments were performed in accordance with protocols approved by the Institutional Animal Care and Use Committee of Arizona State University.
The DNA fragments encoding FS peptides were cloned as a C-terminal fusion into the genetic immunization vectors pCMVi-UB (26) and pCMVi-LSrCOMPTT (27, 28) with the Bgl II and Hind III and mixed with 1:1 ratio as the vaccine antigen. Three adjuvants were encoded by genetic immunization vectors. The pCMVi-mGM-CSF vector expresses the adjuvant mouse granulocyte/macrophage colony-stimulating factor (mGM-CSF) under control of the human cytomegalovirus (CMV) promoter (27). […]. Vectors pCMVi-UB, pCMVi-LSrCOMPTT, pCMVi-LTA (also called pCMVi-LS-LTA-R192G) and pCMVi-LTB are available from the PSI:Biology-Materials Repository DNASU (dnasu.org) at Arizona State University. Additional adjuvants were the class A CpG 2216 single-stranded oligodeoxynucleotide obtained from Sigma and alum from Pierce.
Bullets for biolistic genetic immunization used the gold micronanoplex approach and were prepared as described (30) with the following changes. Two grams of 1-micron gold was used. Prior to addition of N-hydroxysuccinimide and N-(3-dimethylaminopropyl)-N′-ethylcarbodiimide hydrochloride, the gold was resuspended in 20 mL of a 0.1 M solution of 2-(N-morpholino) ethanesulfonic acid (MES), pH 6.0. DNA-gold micronanoplexes were prepared by combining, per bullet, 57 μL of cysteamine-gold solution with precipitated DNA (≤10 μg) that had been resuspended in ≤15 μL of water, and then vortexing for 10 min. To the DNA-cysteamine-gold was added […] of a freshly made solution of PEI-micron gold (167 mg/mL in 0.1 M MES, pH 6, without NaCl). The pelleted micronanoplexes were washed with ethanol prior to resuspension in n-butanol ([…]), followed by bullet formation under nitrogen gas.
For the three MS FS experiments, all mice (n=10 per group) were genetically immunized in the ear by Gene Gun at 8 weeks of age (2 shots/mouse, 60 ng pooled antigens plus 0.25 μg LTAB and 2.5 μg CpG2216 as the adjuvant for each shot) and boosted twice (two days apart) in three weeks with 1 μg pooled antigens plus the same adjuvants dosage. All mice were boosted again in two weeks with 50 μg KLH conjugated MS FS peptides with 50 μg CpG 2216 and 50 ul alum in total 100 ul PBS. […]

The mark [1] stands for this setting: gene vaccines three times in two week intervals, 2x10^3 4T1 cells subcutaneous, n=4 per group, vs mock.

For “TAIIGPNGSGCSGVYCHEEPQGEDSSV [SMC1A 1^4 FS, mouse mis-splicing FS antigen, SMC1A exon 1 joined to exon 4]”, in the assay on B16-F10 cells, the “tumor growth (tumor volume)” value was “significant retardation of tumor growth”. Moreover, in the assay on 4T1 cells (gene gun plus KLH-peptide boost, 5x10^3 4T1 cells, n=10 per group), the tumor growth entry is given as “significantly retarded the 4T1 tumor growth”. In the assay on 4T1 cells (immunized mice depleted with anti CD8 or anti CD4 antibody), the “T cell dependence of protection (CD8 or CD4 T-cell depletion)” value is reported as “CD8 T cell dependent”. Turning to “IPRMQPQASANHCQLLKVMVA [SLAIN2-FS, mouse mis-splicing FS antigen, skips exon 7]”, the tumor growth entry with 4T1 cells (setting [1]) was “conferred tumor retardation”. In the case of “AVLLMCQLYQPWMCKEYYRLL [ZDHHC17, mouse mis-splicing FS antigen, skips exon 16]”, the tumor growth entry with 4T1 cells (setting [1]) is listed as “did not”.
